Reference: US6911475B1, “Use of nicotine or its derivatives in a drug for treating neurological disease, in particular Parkinson's disease” (Assistance Publique-Hopitaux de Paris, priority 1999, dated 2005)
Where two headings read alike, the source gives them in different places.

Experiments:
[1] = tested on: Parkinson's disease
Method: Clinical evaluation of the effect of the drug of the invention and of the treatment method was carried out using conventional UPDRS I, II and III neurological tests. These tests enabled both neuro-psychological and physical effects to be measured.
The UPDRS I test measures, on a scale of 0 to 4, mentation, behaviour and mood of the patient, taking into account the criteria of intellectual impairment, thought disorder, depression and motivation/initiative.
The UPDRS II test measures a series of sensory or motor physical tests, also on a scale of 0 to 4.
The UPDRS III test measures the motor activity of the patient, again on a scale of 0 to 4.
Zero indicates a normal state and four indicates maximum perturbation.
Clinical evaluation was based on the L-DOPA test and was carried out as follows:
The UPDRS test used is described below.
It consisted of halting the L-DOPA therapy to a zero dose 12 to 24 hours before the test.
The next day, every half hour, the condition and the clinical changes in the patient was measured during stoppage (“off” period, no L-DOPA) then the clinical changes during resumption (“on” period with L-DOPA). The time was measured using a chronometer.
This test was carried out with UPDRS measurements as described above: • motor UPDRS (Unified Parkinson's Disease Rating Scale); • UPDRS I (mental state of patient); • UPDRS II (daily life, on-off); ADL (activities of daily living); • Self-evaluation test (test carried out by the patient, verification and confirmation by physician of fluctuations in on-off periods during the day).

[2] = tested on: Parkinson's disease; remark: listed apart in the source
Method: (§1) The physical symptoms studied were: tremor, axial rigidity, gait and speech. The neuro-psychological symptoms were memory and sexual activity.
(§2) Over a period of six months, nicotine patches were administered to the patient, firstly using increasing doses over the first three months to reach a dose of 102 mg per day and then by combining two types of patch, namely a patch in the form of a slow release patch (patch P) and rapid release patches (patch R). Each patch P contained 21 mg of nicotine and each patch R contained 15 mg of nicotine.
Overall, the daily dose was 21 mg the first month and stabilized at 102 mg from the fourth month, divided into 42 mg under slow release and 60 mg under rapid release.
Concomitantly, L-DOPA was administered in a decreasing dose with time; in contrast, the bromocriptine dose was unchanged and remained at 30 mg per day over the entire treatment, as shown in Table II below.

[3] = tested on: Parkinson's disease; remark: listed apart in the source
Method: as §1, §2

[4] = Re-administer nicotine at 102 mg/kg/d, after a period without nicotine

CN1CCCC1c1cccnc1 (centres unmarked) [nicotine]
UPDRS I (mental state) ([1]; With nicotine treatment (6 months later), day 0 without nicotine: 10): 0
UPDRS II off (daily activity, ADL) ([1]; With nicotine treatment (6 months later), off = no L-DOPA, day 0 without nicotine: 22): 10
UPDRS II on (daily activity, ADL) ([1]; With nicotine treatment (6 months later), on = with L-DOPA, day 0 without nicotine: 13): 6
UPDRS score for the "off" periods (FIG. 2) ([1]; no L-DOPA, 30 mg bromocriptine, over nicotine treatment, except in the seventh month (nicotine interrupted)): reduction in the score
UPDRS measurements in the "on" periods (FIG. 2) ([1]; with L-DOPA (250 mg first test, 187.50 mg after six months), 30 mg bromocriptine, over nicotine treatment): constant decrease
Axial rigidity [2, 4]: 0
Gait [2, 4]: 0
Speech [2, 4]: 0
Tremor [2, 4]: 1
Axial rigidity ([2]; With nicotine treatment): 0
Gait ([2]; With nicotine treatment): 0
Speech ([2]; With nicotine treatment): 0
Tremor ([2]; With nicotine treatment, patient, concomitant L-DOPA and 30 mg/day bromocriptine, 0 = normal, 4 = maximum perturbation): 1
Axial rigidity (in words) ([2]; nicotine treatment, Table III): completely abolished
Gait and speech (in words) ([2]; nicotine treatment, Table III): normalised
Symptomatic effect of stopping administration of nicotine ([2]; stopping nicotine in the eighth month): no symptomatic effect
Sexual problems and urinary dysfunction ([3]; after four months of treatment, problems present for two years): completely re-established functions
Depressive episodes ([3]; under nicotine treatment): reduced
Memory disorders ([3]; under nicotine treatment): reduced
Neuro-psychological manifestations of Parkinson's disease ([3]; within six months from commencing treatment): disappeared completely
